From the OligoGym collection
Where “and” joins values, the source holds several entries; their conditions need not be identical. Identical values can stand only once. After the bases stand the sugars from the 5' end (letter, count) and the backbone: PS all phosphorothioate, else s phosphorothioate and o phosphodiester by linkage. HELM strings list units from the 5' end as sugar, base in round brackets, then linkage (d deoxyribose, r ribose, m 2'-O-methyl, p phosphodiester). Methylation of C is not given here. [mop] = methoxypropylphosphonate linkage; [moe] = 2'-O-(2-methoxyethyl) (MOE); [sp] = phosphorothioate linkage; e = 2'-O-(2-methoxyethyl) (MOE); k = constrained ethyl (cEt); d = 2'-deoxy (DNA); m = 2'-O-methyl

Tests used:
IRF5 = settings: ASO
HBV = settings: ASO, HepG2, 0.07 µM

Substance	target mRNA inhibition (IRF5; KARPAS-229, 4 µM)	further results
TATTTCTGCTCCAGGT (sugars kkddddddddkekekk, PS)	0%	
CGGTCTTTGAGGTCTG (sugars kkddddddddddkeke, PS)	43% and 46%	target mRNA inhibition (IRF5; KARPAS-229, 0.44444 µM): 31%; target mRNA inhibition (IRF5; KARPAS-229, 1.33333 µM): 29%; target mRNA inhibition (IRF5; KARPAS-229, 12 µM): 57%
TGACTGTATTACCTAT (sugars k3 d10 k3, PS)	18%	
TCTGGCCCTTTTGGAA (sugars kddddddddddkekek, PS)	0%	
AGCTTGGTCTTGACCT (sugars k3 d9 k3 e1, PS)	10%	
AGCTTTCTTGTCTAGT (sugars k3 d10 k3, PS)	20%	
AAGGGCACAGCGCAGG (sugars kkdddddddddkekek, PS)	0%	
AGTGAGACGAGCAAAG (sugars k3 d10 k3, PS)	16%	
TGAGTCTCAAACCAGG (sugars kkkddddddddkekek, PS)	0%	
ATGAGTCATGGGCTGA (sugars kkkddddddddkekek, PS)	0%	
TTCTGCAGGGAGTCAG (sugars kkddddddddkekekk, PS)	0%	
CATTCTATGCCTTTTA (sugars kdddddddddkekeke, PS)	13%	
AAGGGCACAGCGCAGG (sugars k2 d11 k3, PS)	0% and 2%	
CCAATTTTGCATTCCA (sugars kkdddddddddkdkdk, PS)	42%	
GTTCTTGGACTCTCAA (sugars kkdddddddddkdkdk, PS)	20%	
TCTGATATGATACCTA (sugars k3 d1 m1 d8 k3, PS)		target mRNA inhibition (IRF5; A-431, 0.00412 µM): 1%; target mRNA inhibition (IRF5; A-431, 0.01225 µM): 8%; target mRNA inhibition (IRF5; A-431, 0.03704 µM): 35%; target mRNA inhibition (IRF5; A-431, 0.11111 µM): 57%; target mRNA inhibition (IRF5; A-431, 0.33333 µM): 77%; target mRNA inhibition (IRF5; A-431, 1 µM): 81%
TGCACTGACACAGGCG (sugars kkkddddddddkekek, PS)	0%	
TTATCTCCGTCCTGGC (sugars kkdddddddddkdkdk, PS)	14%	
TGTCTAGTGTCATGGA (sugars k2 d9 e3 k2, PS)	60% and 57%	target mRNA inhibition (IRF5; A-431, 0.00412 µM): 0% and 4%; target mRNA inhibition (IRF5; A-431, 0.01225 µM): 0% and 2%; target mRNA inhibition (IRF5; A-431, 0.03704 µM): 24% and 28%; target mRNA inhibition (IRF5; A-431, 0.11111 µM): 44%; target mRNA inhibition (IRF5; A-431, 0.33333 µM): 59% and 60%; target mRNA inhibition (IRF5; A-431, 1 µM): 69% and 74%; target mRNA inhibition (IRF5; KARPAS-229, 0.44444 µM): 33%; target mRNA inhibition (IRF5; KARPAS-229, 1.33333 µM): 50%; target mRNA inhibition (IRF5; KARPAS-229, 12 µM): 70%
ACTGACACAGGCGGAT (sugars k3 d9 k3 e1, PS)	0%	
GTGAGTCTCAAACCAG (sugars kkkdddddddddkeke, PS)	0%	
AGATGGTGTTATCTCC (sugars k3 d10 k3, PS)	0%	
TCTTGACCTCCCGCTG (sugars kddddddddddkekek, PS)	46%	
TCTAGTGTCATGGAAT (sugars k3 d10 k3, PS)	14%	
CACCACTGTGTACCCC (sugars kddddddddddkekek, PS)	0%	
TTGTCTAGTGTCATGG (sugars kkkddddddddkekek, PS)	16%	

Substance	target mRNA inhibition (IRF5; KARPAS-229, 4 µM)	further results
ACTGACACAGGCGGAT (sugars kkkddddddddkekek, PS)	0%	
GGTTCTTGGACTCTCA (sugars kkkddddddddkekek, PS)	25%	
TGTCACATCTCCACAT (sugars kddddddddddkekek, PS)	16%	
GGTCTGGCCCTTTTGG (sugars k3 d9 k3 e1, PS)	0%	
GGTCTTTGAGGTCTGG (sugars kkdddddddddkekek, PS)	54%	
GTGAGTCTCAAACCAG (sugars kkddddddddkekekk, PS)	9%	
GTTATCTCCGTTCCTGG (sugars kddddddddddkekekd, PS)	0%	
GATGGTGTTATCTCCG (sugars kkddddddddkekekk, PS)	0%	
GGTCTTGACCTCCCGC (sugars kkddddddddddkeke, PS)	0%	
TATTTCTGCTCCAGGT (sugars k2 d9 e3 k2, PS)		target mRNA inhibition (IRF5; KARPAS-229, 0.44444 µM): 57%; target mRNA inhibition (IRF5; KARPAS-229, 1.33333 µM): 71%; target mRNA inhibition (IRF5; KARPAS-229, 12 µM): 83%
CATTCTATGCCTTTTA (sugars kddddddddddkekek, PS)	37%	
GTTATCTCCGTTCCTGG (sugars kkkddddddddkdkdkd, PS)	27%	
CCCAATGCAACATCCA (sugars kddddddddddkekek, PS)	0%	
CTCTAAACCATTCTAT (sugars k3 d10 k3, PS)	0%	
CCCAATGCAACATCCA (sugars k3 d9 k3 e1, PS)	0%	
CCAATGCAACATCCAT (sugars kkkddddddddkekek, PS)	0%	
GCTGTCACATCTCCAC (sugars kkkddddddddkekek, PS)	0%	
CCATTCTATGCCTTTT (sugars k2 d9 e3 k2, PS)	50%	
ACCATTCTATGCCTTT (sugars k3 d9 k3 e1, PS)	59% and 61%	target mRNA inhibition (IRF5; KARPAS-229, 0.44444 µM): 33%; target mRNA inhibition (IRF5; KARPAS-229, 1.33333 µM): 56%; target mRNA inhibition (IRF5; KARPAS-229, 12 µM): 75%
CGGTCTTTGAGGTCTG (sugars kkkddddddddkekek, PS)	56%	
CTGATATGATACCTAA (sugars k3 d10 k3, linkages s4 [mop]1 s10)		target mRNA inhibition (IRF5; A-431, 0.00412 µM): 11%; target mRNA inhibition (IRF5; A-431, 0.01225 µM): 22%; target mRNA inhibition (IRF5; A-431, 0.03704 µM): 29%; target mRNA inhibition (IRF5; A-431, 0.11111 µM): 56%; target mRNA inhibition (IRF5; A-431, 0.33333 µM): 76%; target mRNA inhibition (IRF5; A-431, 1 µM): 78%
TCACCACTGTGTACCC (sugars k2 d8 e4 k2, PS)	0%	
TCTGATATGATACCTA (sugars k3 d1 k1 d8 k3, PS)		target mRNA inhibition (IRF5; A-431, 0.00412 µM): 0%; target mRNA inhibition (IRF5; A-431, 0.01225 µM): 7%; target mRNA inhibition (IRF5; A-431, 0.03704 µM): 43%; target mRNA inhibition (IRF5; A-431, 0.11111 µM): 65%; target mRNA inhibition (IRF5; A-431, 0.33333 µM): 81%; target mRNA inhibition (IRF5; A-431, 1 µM): 85%
AGATGGTGTTATCTCC (sugars kkkdddddddddkeke, PS)	8%	
GACTGTATTACCTATA (sugars k3 d10 k3, PS)	41%	
ATACCCAATGCAACAT (sugars k3 d10 k3, PS)	1%	

Substance	target mRNA inhibition (IRF5; KARPAS-229, 4 µM)	further results
GATGGTGTTATCTCCG (sugars k2 d9 e3 k2, PS)	0%	
TGAGTCTCAAACCAGG (sugars kkdddddddddkekek, PS)	0%	
TTATTTCTGCTCCAGG (sugars kekdddddddddeekk, PS)	56% and 80%	target mRNA inhibition (IRF5; KARPAS-229, 0.44444 µM): 53%; target mRNA inhibition (IRF5; KARPAS-229, 1.33333 µM): 69%; target mRNA inhibition (IRF5; KARPAS-229, 12 µM): 86%
GCATTCCATATACACA (sugars k3 d10 k3, PS)	21%	
CAGGTTCTTGGACTCT (sugars kkddddddddddkeke, PS)	28%	
AGATGGTGTTATCTCC (sugars kkddddddddddkeke, PS)	0%	
GATGGTGTTATCTCCG (sugars kkkddddddddkekek, PS)	0%	
CCATTCTATGCCTTTT (sugars k3 d9 k3 e1, PS)	58% and 70%	target mRNA inhibition (IRF5; KARPAS-229, 0.44444 µM): 31%; target mRNA inhibition (IRF5; KARPAS-229, 1.33333 µM): 44%; target mRNA inhibition (IRF5; KARPAS-229, 12 µM): 78%
ACATCTCCACATCAGT (sugars kkdddddddddkekek, PS)	16%	
TGTCTAGTGTCATGGA (sugars k3 d10 k3, PS)	61% and 65%	target mRNA inhibition (IRF5; KARPAS-229, 0.44444 µM): 0%; target mRNA inhibition (IRF5; KARPAS-229, 1.33333 µM): 42%; target mRNA inhibition (IRF5; KARPAS-229, 12 µM): 74%
GGTTCTTGGACTCTCA (sugars kkddddddddddkeke, PS)	51% and 73%	target mRNA inhibition (IRF5; KARPAS-229, 0.44444 µM): 39%; target mRNA inhibition (IRF5; KARPAS-229, 1.33333 µM): 59%; target mRNA inhibition (IRF5; KARPAS-229, 12 µM): 84%
GAGTCTCAAACCAGGG (sugars kkddddddddkekekk, PS)	0%	
AAGATGGTGTTATCTC (sugars k3 d10 k3, PS)	0%	
TGCAGGGAGTCAGACC (sugars k3 d10 k3, PS)	0%	
TGTCACATCTCCACAT (sugars kkddddddddkekekk, PS)	0%	
ACCACTGTGTACCCCA (sugars k3 d9 k3 e1, PS)	47%	
ACCATTCTATGCCTTT (sugars kkkddddddddkdkdk, PS)	11%	
GGTCTTGACCTCCCGC (sugars k3 d10 k3, PS)	33%	
GTCTAGTGTCATGGAA (sugars k3 d10 k3, PS)	38%	
RNA1{[moe](C)[sp].[moe](C)[sp].[moe](G)[sp].d(C)[sp].d(A)[sp].d(G)[sp].d(T)[sp].d(A)[sp].d(T)[sp].d(G)[sp].d(G)[sp].d(A)[sp].[moe](T)[sp].[moe](C)[sp].[moe](G)[sp].[moe](G)[sp].[moe](C)}$$$$V2.0		target mRNA inhibition (HBV): 86% and 73%
RNA1{[moe](T)[sp].[moe](G)[sp].[moe](A)[sp].d(G)[sp].d(G)[sp].d(C)[sp].d(A)[sp].d(T)[sp].d(A)[sp].d(G)[sp].d(C)[sp].d(A)[sp].[moe](G)[sp].[moe](C)[sp].[moe](A)[sp].[moe](G)[sp].[moe](G)}$$$$V2.0		target mRNA inhibition (HBV): 70% and 56%
RNA1{[moe](C)[sp].[moe](A)[sp].[moe](C)[sp].[moe](T)[sp].[moe](A)[sp].d(G)[sp].d(T)[sp].d(A)[sp].d(A)[sp].d(A)[sp].d(C)[sp].d(T)[sp].d(G)[sp].d(A)[sp].[moe](G)[sp].[moe](C)}$$$$V2.0		target mRNA inhibition (HBV): 59% and 60%
RNA1{[moe](A)[sp].[moe](A)[sp].[moe](G)[sp].d(C)[sp].d(G)[sp].d(A)[sp].d(A)[sp].d(G)[sp].d(T)[sp].d(G)[sp].d(C)[sp].d(A)[sp].[moe](C)[sp].[moe](A)[sp].[moe](C)[sp].[moe](G)[sp].[moe](G)}$$$$V2.0		target mRNA inhibition (HBV): 81% and 73%
RNA1{[moe](A)[sp].[moe](A)[sp].[moe](C)[sp].[moe](T)[sp].d(G)[sp].d(G)[sp].d(A)[sp].d(G)[sp].d(C)[sp].d(C)[sp].d(A)[sp].d(C)[sp].d(C)[sp].[moe](A)[sp].[moe](G)[sp].[moe](C)}$$$$V2.0		target mRNA inhibition (HBV): 52% and 45%
